From patent US8987335B2, “Substituted (E)-N′-(1-phenylethylidene)benzohydrazide analogs as histone demethylase inhibitors” (University of Utah Research Foundation, priority 2011, dated 2015)

Columns and labels:
LSD1 = LSD1 (Homo sapiens (Human), UniProt O60341); assay: LSD1 Histone Demethylase Assay (LSD1 Inhibitor Screening Assay Kit); format: biochemical; conditions: for LSD1 biochemical activity (in words): SAR discussion
Description: Briefly, test compounds were diluted to 20× the desired test concentration in 100% DMSO and 2.5 μL of the diluted drug sample was added to a black 384-well plate. The LSD1 enzyme stock was diluted 17-fold with assay buffer and 40 μM of the diluted LSD1 enzyme was added to the appropriate wells.
(§1) IC50 values are determined using GraphPad Prism 5 software. The data were entered as an X-Y plot into the software as percent inhibition for each concentration of the drug. The concentration values of the drug were log transformed and the nonlinear regression was carried out using the “sigmoidal dose-response (variable slope)” option within the GraphPad software to model the data and calculate IC50 values.

T-47D cells = assay: Cell Viability Assay (ATPlite), T-47D; format: cell-based; conditions: Homo sapiens, T47D, 96-hours of incubation, read-out: Cell Growth, IC50
Description: Cells were cultured according to the procedures provided. […] Cells were cultured at 37° C. and 5% CO2.
as §1

MAO A = MAO A (Homo sapiens (Human), UniProt P21397); assay: Monoamine Oxidase assay (MAO-Glo), MAO A; format: biochemical
MAO A, sequence (P21397 whole entry): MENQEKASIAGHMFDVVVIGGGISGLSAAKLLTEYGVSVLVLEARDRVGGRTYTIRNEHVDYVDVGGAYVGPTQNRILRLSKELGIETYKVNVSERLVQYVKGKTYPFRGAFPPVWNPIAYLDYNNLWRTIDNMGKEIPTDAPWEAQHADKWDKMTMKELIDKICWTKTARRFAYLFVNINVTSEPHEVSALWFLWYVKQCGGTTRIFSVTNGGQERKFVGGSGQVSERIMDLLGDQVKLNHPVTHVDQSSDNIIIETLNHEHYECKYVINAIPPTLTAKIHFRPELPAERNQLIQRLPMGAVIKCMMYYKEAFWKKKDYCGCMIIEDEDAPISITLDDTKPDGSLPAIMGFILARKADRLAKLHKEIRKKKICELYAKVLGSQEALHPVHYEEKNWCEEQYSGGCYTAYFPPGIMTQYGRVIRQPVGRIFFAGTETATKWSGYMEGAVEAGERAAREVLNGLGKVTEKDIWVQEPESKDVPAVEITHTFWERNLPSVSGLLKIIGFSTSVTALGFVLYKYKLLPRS
Description: (§2) Recombinant (expressed in baculovirus infected BTI insect cells) monoamine oxidase A and monoamine oxidase B (Catalog No. M7316 and M7441, respectively) were purchased from Sigma-Aldrich Co. LLC. […] MAO-Glo™ Assay Kit was purchased from Promega Corporation (Madison, Wis.).
(§3) Briefly, 6.25 μL of test compound was added to each well of a 384-well plate. Enzyme (either MAO A or B) was added (12.5 μL in 2× buffer containing 1 μg protein) and allowed to incubate for 5 minutes. Finally, 6.25 μL of 4×MAO substrate was added to each well. Following a one hour incubation, 25 μL of Luciferin detection reagent was added to each well, and incubated for 20 minutes. Luminescence was then measured on an Envision microplate reader.
as §1

MAO B = MAO B (Homo sapiens (Human), UniProt P27338); assay: Monoamine Oxidase assay (MAO-Glo), MAO B; format: biochemical
MAO B, sequence (P27338 whole entry): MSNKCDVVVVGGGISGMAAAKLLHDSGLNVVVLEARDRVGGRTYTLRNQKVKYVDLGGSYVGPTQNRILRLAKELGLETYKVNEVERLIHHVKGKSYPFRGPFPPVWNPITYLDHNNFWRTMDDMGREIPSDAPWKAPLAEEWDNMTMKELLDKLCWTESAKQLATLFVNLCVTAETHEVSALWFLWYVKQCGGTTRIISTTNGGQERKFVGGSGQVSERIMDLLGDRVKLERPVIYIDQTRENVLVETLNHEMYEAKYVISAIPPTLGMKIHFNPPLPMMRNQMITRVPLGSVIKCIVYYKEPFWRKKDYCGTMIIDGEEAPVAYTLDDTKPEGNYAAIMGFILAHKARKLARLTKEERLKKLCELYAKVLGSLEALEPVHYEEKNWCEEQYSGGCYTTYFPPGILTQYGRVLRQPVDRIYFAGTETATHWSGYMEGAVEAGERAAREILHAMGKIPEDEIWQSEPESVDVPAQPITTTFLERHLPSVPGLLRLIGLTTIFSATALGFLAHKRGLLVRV
Description: as §2, §3, §1

MDA-MB-235 = assay: Cell Viability Assay (ATPlite), MDA-MB-235; format: cell-based; conditions: 96-hours of incubation, read-out: Cell Growth, IC50
Description: Cancer cell lines were obtained from ATCC. Cells were cultured according to the procedures provided. In addition to the supplements indicated in Table 4, media were also supplemented with 1% penicillin/streptomycin (100 IU/mL penicillin and 100 μg/mL streptomycin). Cells were cultured at 37° C. and 5% CO2. ATCC is the American Type Culture Collection (Manassas, Va.).
Cell viability was determined using ATPlite™ Luminescence Assay System (PerkinElmer Inc., Waltham, Mass.) using the various cell-lines described above and in Table 4. Briefly, cells were seeded in 96-well plates and then treated with different concentrations of inhibitor (0.1% final DMSO concentration). After 96-hours of incubation, ATPlite detection reagent was added directly to the culture well. Luminescence was read 5 minutes later on an Envision microplate reader.

Row | Compound | LSD1 biochemical activity (in words) (LSD1) | IC50 (T-47D cells) | further results
1 | C/C(=N\NC(=O)c1ccc(Cl)c(Br)c1)c1cc(Cl)ccc1O [Compound 17, (E)-3-bromo-4-chloro-N′-(1-(5-chloro-2-hydroxyphenyl)ethylidene)benzohydrazide] | drop in biochemical activity | 1700 nM | 
2 | C/C(=N\NC(=O)c1cccc(S(=O)(=O)N2CCOCC2)c1)c1ccnc(Cl)c1 [Compound 15, (E)-N′-(1-(2-chloropyridin-4-yl)ethylidene)-3-(morpholinosulfonyl)benzohydrazide] | drop in biochemical activity | > 10000 nM | 
3 | O=C(N/N=C/c1ccccc1O)c1ccc(O)cc1 [Compound 1] |  |  | activity against MAO A (in words) (MAO A): no activity; activity against MAO B (in words) (MAO B): comparable activity to tranylcypromine
4 | O=C(NNC(=O)c1cc(S(=O)(=O)N2CCOCC2)ccc1F)c1cccc(Cl)c1 [Compound 7] |  | > 10000 nM | 
5 | C/C(=N\NC(=O)c1cccc(S(=O)(=O)N2CCOCC2)c1)c1cccc2ccccc12 [Compound 10] | lower activity | > 10000 nM | IC50 (LSD1): > 10000 nM
6 | C/C(=N\NC(=O)c1cncc(S(C)(=O)=O)c1)c1cc(Cl)ccc1O [Compound 24, (E)-N′-(1-(5-chloro-2-hydroxyphenyl)ethylidene)-5-(methylsulfonyl)nicotinohydrazide] |  |  | activity against MAO A (in words) (MAO A): no activity; activity against MAO B (in words) (MAO B): no activity
7 | C/C(=N\NC(=O)c1cccc(S(=O)(=O)N2CCOCC2)c1)c1cc(Cl)ccc1Cl [Compound 16, (E)-N′-(1-(2,5-dichlorophenyl)ethylidene)-3-(morpholinosulfonyl)benzohydrazide] | significant drop in activity | > 10000 nM | LSD1 biochemical activity (in words) (LSD1; listed as compound 16): activity was decreased
8 | C/C(=N\NC(=O)c1cccc(S(=O)(=O)N2CCOCC2)c1)c1cccnc1 [Compound 22, (E)-3-(morpholinosulfonyl)-N′-(1-(pyridin-3-yl)ethylidene)benzohydrazide] | drop in biochemical activity |  | 
9 | COc1ccc(Cl)cc1C(=O)NNC(=O)c1cc(S(=O)(=O)N2CCOCC2)ccc1F [Compound 6] | lack of biochemical activity | > 10000 nM | 
10 | C/C(=N\NC(=O)c1cccc(S(=O)(=O)N2CCOCC2)c1)c1cc(Cl)ccc1O [Compound 12, (E)-N′-(1-(5-chloro-2-hydroxyphenyl)ethylidene)-3-(morpholinosulfonyl)benzohydrazide] |  |  | IC50 (MAO A): > 300000 nM; IC50 (MDA-MB-235): 728 nM; IC50 (MAO B): > 300000 nM
11 | CC/C(=N\NC(=O)c1cccc(S(=O)(=O)N2CCOCC2)c1)c1cc(Cl)ccc1O [Compound 21, (E)-N′-(1-(5-chloro-2-hydroxyphenyl)propylidene)-3-(morpholinosulfonyl)benzohydrazide] |  | 616 nM | 
12 | CCN(CC)S(=O)(=O)c1ccc(F)c(C(=O)NNC(=O)c2ccc(C)cc2)c1 [Compound 8] | lower activity | > 10000 nM | 
13 | C/C(=N\NC(=O)c1cncc(Cl)c1)c1cc(Cl)ccc1O [Compound 20, (E)-5-chloro-N′-(1-(5-chloro-2-hydroxyphenyl)ethylidene)nicotinohydrazide] | drop in biochemical activity | 270 nM | 
14 | C/C(=N\NC(=O)c1cnc(Cl)c(Br)c1)c1cc(Cl)ccc1O [Compound 19, (E)-5-bromo-6-chloro-N′-(1-(5-chloro-2-hydroxyphenyl)ethylidene)nicotinohydrazide] | drop in biochemical activity | 1380 nM | 
15 | N[C@@H]1CC1c1ccccc1 (stereo partly drawn) [tranylcypromine, reference compound] |  |  | activity against MAO A (in words) (MAO A): exhibited activity; activity against MAO B (in words) (MAO B): exhibited activity
